This note sets out measurements from patent US11472788B2, “Benzoimidazoles as selective inhibitors of indoleamine 2,3-dioxygenases” (BEIGENE, LTD., priority 2017, dated 2022).

As a reminder, the EC50 is the concentration that produces a half-maximal response. High values mean lower potency in that assay, low ones higher potency in that assay.

The target of the test is cellular IDO1 in HeLa cells (Homo sapiens (Human), UniProt P14902). Nature of the test: HeLa Cell-Based IDO1 Kyn (Kynurenine) Production Assay. The note with it: IFN-γ induced IDO1, 48 hours incubation, Kyn absorbance at 480 nm. How it is done: HeLa Cell-Based IDO1 Kyn (Kynurenine) Production Assay:
The inhibitory activity of IDO1 inhibitors is determined by using a colorimetric reaction to measure Kyn generated from L-Trp (L-Tryptophon) oxidation by cellular IDO1 in HeLa cells after induction of IDO1 expression by IFN-γ.
Hela cells were obtained from the American Type Culture Collection and recovered in 10% FBS-containing phenol red-free DMEM medium. Cells were plated onto a 96-well plate (100 μl/well) at 8000 cells per well and kept at 37° C. in a humidified incubator supplied with 5% CO2. 4 hours later, Human recombinant IFN-γ (8901SC, CST) was added to cells (final concentration 100 ng/mL) to stimulate endogenous IDOL. Compounds at different concentrations diluted in dimethylsulfoxide (DMSO) were added simultaneously with IFN-γ and 0.4 mM L-Trp. Cells were kept at 37° C. in a humidified incubator supplied with 5% CO2. After 48 hours of incubation, 100 μl supernatant from each well was removed to a new plate. The protein in the medium was precipitated with the addition of 8 μl 6N trichloroacetic acid. The plate was incubated at 60° C. for 30 minutes and then centrifugation at 2500 rpm for 10 minutes to remove sediments. 80 μl supernatants were carefully removed to a new clean plate and added with an equal volume of 2% 4-(Dimethylamino)benzaldehyde (D2004, sigma) dissolved in glacial acetic acid. The absorbance at 480 nm wavelength derived from Kyn was measured using a PHERAstar FS plate reader (BMG LABTECH). The IC5C for each compound was derived from fitting the dose-response data to the four-parameter logistic model by using XLfit software (IDBS).

Sequence of cellular IDO1 in HeLa cells (P14902 whole entry): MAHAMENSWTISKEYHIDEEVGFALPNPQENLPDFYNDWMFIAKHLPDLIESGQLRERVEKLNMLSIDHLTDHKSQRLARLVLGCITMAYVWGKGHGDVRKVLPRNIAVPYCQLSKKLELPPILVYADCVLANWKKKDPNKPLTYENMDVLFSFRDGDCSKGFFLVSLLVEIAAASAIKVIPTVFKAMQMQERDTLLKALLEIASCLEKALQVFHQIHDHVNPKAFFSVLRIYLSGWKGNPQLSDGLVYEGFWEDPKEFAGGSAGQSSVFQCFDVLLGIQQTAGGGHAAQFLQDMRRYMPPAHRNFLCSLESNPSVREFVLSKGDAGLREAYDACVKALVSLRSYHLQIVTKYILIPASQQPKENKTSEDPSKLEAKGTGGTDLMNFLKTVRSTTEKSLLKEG

For the compound `C[C@@H](c1nc2cc(Cl)c(F)cc2[nH]1)[C@H]1CC[C@@H](c2ccnc3ccc(F)cc32)CC1` [Example B2, 4-((1S,4s)-4-((R)-1-(5-chloro-6-fluoro-1H-benzo[d]imidazol-2-yl)ethyl)cyclohexyl)-6-fluoroquinoline], a half-maximal response (EC50) required 0.95 nM.

`CC(c1nc2c(ccc3ccccc32)[nH]1)[C@H]1CC[C@@H](c2ccnc3ccc(F)cc32)CC1` (stereo partly drawn) [B175] returned an EC50 of 1.7 nM.

The compound `C[C@@H](c1nc2ccc(S(C)(=O)=O)cc2[nH]1)[C@H]1CC[C@H](c2ccnc3ccc(F)cc32)CC1` [Example B178, 6-fluoro-4-((1R,4r)-4-((R)-1-(6-(methylsulfonyl)-1H-benzo[d]imidazol-2-yl)ethyl)cyclohexyl)quinoline] had an EC50 of 283 nM.

The compound `Fc1ccc2nccc([C@H]3CC[C@H](Cc4nc5cc(OC6CC6)ccc5[nH]4)CC3)c2c1` [Example A8a, 4-((1r,4r)-4-((5-cyclopropoxy-1H-benzo[d]imidazol-2-yl)methyl)cyclohexyl)-6-fluoroquinoline] gave an EC50 of 528 nM.

With `C[C@H](c1nc2cc(-c3ccccc3)c(F)cc2[nH]1)[C@H]1CC[C@@H](c2ccnc3ccc(F)cc32)CC1` [B219], the EC50 stood at 13.7 nM.

The compound `COC1CCC(NC(=O)c2ccc3[nH]c(C(C)[C@H]4CC[C@H](c5ccnc6ccc(F)cc65)CC4)nc3c2)CC1` (stereo partly drawn) [Example B186, 2-(1-((1r,4r)-4-(6-fluoroquinolin-4-yl)cyclohexyl)ethyl)-N-(4-methoxycyclohexyl)-1H-benzo[d]imidazole-5-carboxamide] showed an EC50 of 193 nM.

In the case of `CC(=O)Nc1ccc2nc([C@H](C)[C@H]3CC[C@@H](c4ccnc5ccc(F)cc54)CC3)[nH]c2c1` [Example B179, N-(2-((R)-1-((1r,4R)-4-(6-fluoroquinolin-4-yl)cyclohexyl)ethyl)-1H-benzo[d]imidazol-6-yl)acetamide], the EC50 was found to be 36.2 nM.

`Clc1ccc2[nH]c(C3C4CCC(c5ccccc5)CC43)nc2c1` (stereo not drawn) [Example A36, 5-chloro-2-(3-phenylbicyclo[4.1.0]heptan-7-yl)-1H-benzo[d]imidazole] registered an EC50 of 1670 nM.

Regarding `Fc1ccc2nccc(C3CCC(Cc4nc5cc(CN6CCCCC6)ccc5[nH]4)CC3)c2c1` (stereo not drawn) [Example A15, 6-fluoro-4-(4-((5-(piperidin-1-ylmethyl)-1H-benzo[d]imidazol-2-yl)methyl)cyclohexyl)quinoline], the EC50 came to 1950 nM.

`COC(=O)c1ccc2nc(C(C)[C@H]3CC[C@@H](c4ccnc5ccc(F)cc54)CC3)[nH]c2c1F` (stereo partly drawn) [B191]: the EC50 was 1.14 nM.

Regarding `C[C@@H](c1nc2cc(-c3ccccc3)c(F)cc2[nH]1)[C@H]1CC[C@@H](c2ccnc3ccc(F)cc32)CC1` [B156], the EC50 was determined as 3.1 nM.

Compound `CC(c1nc2cc(C(=O)NCC3(O)CCC3)ccc2[nH]1)[C@H]1CC[C@H](c2ccnc3ccc(F)cc32)CC1` (stereo partly drawn) [Example B184, 2-(1-((1r,4r)-4-(6-fluoroquinolin-4-yl)cyclohexyl)ethyl)-N-((1-hydroxycyclobutyl)methyl)-1H-benzo[d]imidazole-5-carboxamide] showed an EC50 of over 1000 nM.

As for `Fc1ccc2nccc([C@H]3CC[C@@H](Cc4nc5cc(C(F)(F)F)ccc5[nH]4)CC3)c2c1` [Example A3b, 6-fluoro-4-((1r,4r)-4-((5-(trifluoromethyl)-1H-benzo[d]imidazol-2-yl)methyl)cyclohexyl)quinoline], the EC50 came out at 6.8 nM.

`CC(C)OC(=O)c1ccc2nc(C(C)[C@H]3CC[C@@H](c4ccnc5ccc(F)cc54)CC3)[nH]c2c1` (stereo partly drawn) [B168] displayed a concentration for a half-maximal effect (EC50) of 4.86 nM.

On to `C[C@H](c1nc2c(ccc3ccccc32)[nH]1)[C@H]1CC[C@@H](c2ccnc3ccc(F)cc32)CC1` [Example B211, 2-((S)-1-((1s,4R)-4-(6-fluoroquinolin-4-yl)cyclohexyl)ethyl)-3H-naphtho[1,2-d]imidazole], for which the EC50 was 1.3 nM.

`Clc1ccc2[nH]c(CCC3CC4CC3CC4c3ccccc3)nc2c1` (stereo not drawn) [Example D2, 5-chloro-2-(2-(5-phenylbicyclo[2.2.1]heptan-2-yl)ethyl)-1H-benzo[d]imidazole] registered an EC50 of 69 nM.

Consider `C[C@@H](c1nc2c(F)cc(F)c(F)c2[nH]1)[C@H]1CC[C@@H](c2ccnc3ccc(F)cc32)CC1` [Example B5, 6-fluoro-4-((1S,4s)-4-((R)-1-(4,6,7-trifluoro-1H-benzo[d]imidazol-2-yl)ethyl)cyclohexyl)quinoline], for which the EC50 worked out at 1.4 nM.

`C[C@@H](c1nc2c(Cl)c(F)cc(F)c2[nH]1)[C@H]1CC[C@@H](c2ccnc3ccc(F)cc32)CC1` [Example B123, 4-((1S,4s)-4-((R)-1-(4-chloro-5,7-difluoro-1H-benzo[d]imidazol-2-yl)ethyl)cyclohexyl)-6-fluoroquinoline] registered an EC50 of 6.79 nM.

Compound `Fc1ccc2nccc([C@H]3CC[C@H](Cc4nc5cc6c(cc5[nH]4)OCO6)CC3)c2c1` [Example A7a, 6-(((1r,4r)-4-(6-fluoroquinolin-4-yl)cyclohexyl)methyl)-5H-[1,3]dioxolo[4′,5′:4,5]benzo[1,2-d]imidazole] displayed an EC50 of 87 nM.

As to `C[C@@H](c1nc2cc(Cl)c(F)cc2[nH]1)[C@H]1CC[C@@H](c2ccnc3ccc(F)cc32)CC1` [Example B2a, 4-((1R,4s)-4-((S)-1-(5-chloro-6-fluoro-1H-benzo[d]imidazol-2-yl)ethyl)cyclohexyl)-6-fluoroquinoline], the EC50 turned out to be 0.38 nM.

Regarding `Cc1cc(C(=O)NC2CCC2)cc2nc([C@H](C)[C@H]3CC[C@@H](c4ccnc5ccc(F)cc54)CC3)[nH]c12` [B187], it took 17.1 nM to reach a half-maximal effect (EC50).

Turning to `C[C@@H](c1nc2cc3ccccc3cc2[nH]1)[C@H]1CC[C@@H](c2ccnc3ccc(F)cc32)CC1` [Example B173, 2-((R)-1-((1s,4S)-4-(6-fluoroquinolin-4-yl)cyclohexyl)ethyl)-1H-naphtho[2,3-d]imidazole], a half-maximal effect (EC50) was put at 12.7 nM.

In turn, `COCCNC(=O)c1ccc2[nH]c(C(C)[C@H]3CC[C@@H](c4ccnc5ccc(F)cc54)CC3)nc2c1` (stereo partly drawn) [Example B216, 2-(1-((1s,4s)-4-(6-fluoroquinolin-4-yl)cyclohexyl)ethyl)-N-(2-methoxyethyl)-1H-benzo[d]imidazole-5-carboxamide] gave an EC50 of 62.9 nM.

Compound `CC(c1nc2cc(C(=O)N(C)C)ccc2[nH]1)[C@H]1CC[C@@H](c2ccnc3ccc(F)cc32)CC1` (stereo partly drawn) [Example B160, 2-(1-((1s,4s)-4-(6-fluoroquinolin-4-yl)cyclohexyl)ethyl)-N,N-dimethyl-1H-benzo[d]imidazole-5-carboxamide] gave an EC50 of 46 nM.

For `Clc1ccc2[nH]c(CC3CCC(c4ccncc4)CC3)nc2c1` (stereo not drawn) [Example A28, 5-chloro-2-((4-(pyridin-4-yl)cyclohexyl)methyl)-1H-benzo[d]imidazole], the response was half-maximal at 1810 nM (EC50).

Compound `Cc1noc(-c2ccc3nc([C@@H](C)[C@H]4CC[C@@H](c5ccnc6ccc(F)cc65)CC4)[nH]c3c2)n1` [B149] registered an EC50 of 0.96 nM.

`Fc1ccc2nccc([C@H]3CC[C@@H](Cc4nc5cc(OC6CC6)ccc5[nH]4)CC3)c2c1` [Example A8b, 4-((1s,4s)-4-((5-cyclopropoxy-1H-benzo[d]imidazol-2-yl)methyl)cyclohexyl)-6-fluoroquinoline] registered an EC50 of 50 nM.

Compound `C[C@@H](c1nc2cc(-c3ccccc3)c(F)cc2[nH]1)[C@H]1CC[C@@H](c2ccnc3ccc(F)cc32)CC1` [B218] gave an EC50 of 1.8 nM.

The compound `Cc1c(Br)ccc2[nH]c(C[C@H]3CC[C@H](c4ccnc5ccc(F)cc54)CC3)nc12` [Example A11a, 4-((1r,4r)-4-((5-bromo-4-methyl-1H-benzo[d]imidazol-2-yl)methyl)cyclohexyl)-6-fluoroquinoline] returned an EC50 of 135 nM.

`COC(=O)c1c(F)ccc2[nH]c([C@@H](C)[C@H]3CC[C@@H](c4ccnc5ccc(F)cc54)CC3)nc12` [Example B198, methyl 5-fluoro-2-((S)-1-((1s,4R)-4-(6-fluoroquinolin-4-yl)cyclohexyl)ethyl)-1H-benzo[d]imidazole-4-carboxylate] had an EC50 of 984 nM.

For `c1ccc(C2CCC(Cc3nc4cc(C5CC5)ccc4[nH]3)CC2)cc1` (stereo not drawn) [Example A31, 5-cyclopropyl-2-((4-phenylcyclohexyl)methyl)-1H-benzo[d]imidazole], the EC50 was determined as 115 nM.

Consider `C[C@H](c1nc2cc(Cl)c(F)cc2[nH]1)[C@H]1CC[C@@H](c2ccnc3ccc(F)cc32)CC1` [Example B2b, 4-((1S,4s)-4-((R)-1-(5-chloro-6-fluoro-1H-benzo[d]imidazol-2-yl)ethyl)cyclohexyl)-6-fluoroquinoline], for which the EC50 amounted to 50 nM.

The compound `C[C@@H](c1nc2c(F)cc(F)c(Cl)c2[nH]1)[C@H]1CC[C@H](c2ccnc3ccc(F)cc32)CC1` [Example B205, 4-((1R,4r)-4-((R)-1-(7-chloro-4,6-difluoro-1H-benzo[d]imidazol-2-yl)ethyl)cyclohexyl)-6-fluoroquinoline] showed an EC50 of 28.9 nM.
